A short description of series [1]: Pharmacokinetic study, intravenous, rats. The class given is in vivo. Conditions: male SD rats, IV 2 mg/kg. The method, then:
Cimicoxib (cimicoxib) was IV administrated to male SD rats in vivo [2 mg/kg, 2 mg/ml, menstruum: DMSO/PEG 400/30% HP-b-CD ([…])], T1/2 was 3.20 h. The half-life of compound 1 was longer than cimicoxib.

Series [2] addresses T1, cyclooxygenase-1 (COX-1 enzyme) (Homo sapiens, UniProt P23219).
T1 construct: from tissue; host or cells: human whole blood without heparin (platelets) from healthy volunteers
The experiment in a line: Human whole blood in vitro activity assay, COX-1 (TXB2 by EIA). It is filed as cell-based. Conditions: read-out: IC50 (μg/mL) COX-1 (converted). The method, then: (§1) Human whole blood in vitro activity study: inhibition of activity of cyclooxygenase-1 (COX-1 enzyme) and cyclooxygenase-2 (COX-2 enzyme) in human blood. […] The blood samples were divided into two parts: one was used for detecting COX-1 enzyme activity, and the other was used for detecting COX-2 enzyme activity. The compounds were dissolved in DMSO, and were prepared in advance into 2 μL solutions in respective concentrations of 500, 50, 5, 0.5, 0.05, 0.005, 0.0005 μg/mL. 200 μL whole blood without heparin was added in the tubes containing the compounds, and then incubated at 37° C. for 1 hour. The activity of COX-1 enzyme was detected by determining the amount of thromboxane B2 (TXB2) synthesized by platelet using an EIA kit. Samples tested without the compounds were negative controls. For COX-2, 200 μL whole blood with heparin was added in the tubes containing the compounds and in the tubes containing 10 μg/mL LPS. LPS control and blank control with solvent only were used respectively for determining the maximum value and the background value of the PGE2 produced therefrom. The samples were incubated at 37° C. for 24 hours, and then centrifuged to collect serum/plasma, which was stored at −80° C. for detection by an EIA kit. The EIA kit of Cayman Company was used, the amounts of TXB2 and PGE2 were determined in accordance to the manufacturer's instructions, and the activities of COX-1 and COX-2 were tested respectively.

A further series deals with T2, COX-1 (Canis lupus familiaris, UniProt Q8HZR1).
T2 construct: in vitro activity study using beagle dog whole blood was conducted; from tissue; host or cells: beagle dog whole blood (platelets, by the same method as for human blood)
T2 sequence (Q8HZR1 28-603): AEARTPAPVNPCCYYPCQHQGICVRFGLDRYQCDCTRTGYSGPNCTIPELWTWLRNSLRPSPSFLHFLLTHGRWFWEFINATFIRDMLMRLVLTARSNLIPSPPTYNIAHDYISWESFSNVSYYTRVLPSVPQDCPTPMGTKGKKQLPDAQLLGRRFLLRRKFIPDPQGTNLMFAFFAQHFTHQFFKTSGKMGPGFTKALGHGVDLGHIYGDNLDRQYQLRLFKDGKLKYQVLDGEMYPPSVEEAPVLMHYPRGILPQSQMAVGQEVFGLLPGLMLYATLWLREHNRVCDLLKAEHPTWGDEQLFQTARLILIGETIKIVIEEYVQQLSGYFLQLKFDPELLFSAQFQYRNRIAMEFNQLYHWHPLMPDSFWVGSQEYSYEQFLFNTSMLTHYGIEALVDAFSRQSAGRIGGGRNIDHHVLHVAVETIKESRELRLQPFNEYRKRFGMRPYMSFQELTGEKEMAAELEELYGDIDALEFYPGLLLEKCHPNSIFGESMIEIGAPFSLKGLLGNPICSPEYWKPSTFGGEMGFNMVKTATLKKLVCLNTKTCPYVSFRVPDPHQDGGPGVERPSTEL
Briefly: Dog whole blood in vitro activity assay, COX-1. It is filed as cell-based, beagle dog. The settings on record: read-out: IC50 (μg/mL) COX-1 (converted).

For series [3], the target named is T3, cyclooxygenase-2 (COX-2 enzyme) (Homo sapiens, UniProt P35354).
T3 construct: from tissue; host or cells: heparinised human whole blood from healthy volunteers, stimulated with LPS
T3 sequence (P35354 18-604): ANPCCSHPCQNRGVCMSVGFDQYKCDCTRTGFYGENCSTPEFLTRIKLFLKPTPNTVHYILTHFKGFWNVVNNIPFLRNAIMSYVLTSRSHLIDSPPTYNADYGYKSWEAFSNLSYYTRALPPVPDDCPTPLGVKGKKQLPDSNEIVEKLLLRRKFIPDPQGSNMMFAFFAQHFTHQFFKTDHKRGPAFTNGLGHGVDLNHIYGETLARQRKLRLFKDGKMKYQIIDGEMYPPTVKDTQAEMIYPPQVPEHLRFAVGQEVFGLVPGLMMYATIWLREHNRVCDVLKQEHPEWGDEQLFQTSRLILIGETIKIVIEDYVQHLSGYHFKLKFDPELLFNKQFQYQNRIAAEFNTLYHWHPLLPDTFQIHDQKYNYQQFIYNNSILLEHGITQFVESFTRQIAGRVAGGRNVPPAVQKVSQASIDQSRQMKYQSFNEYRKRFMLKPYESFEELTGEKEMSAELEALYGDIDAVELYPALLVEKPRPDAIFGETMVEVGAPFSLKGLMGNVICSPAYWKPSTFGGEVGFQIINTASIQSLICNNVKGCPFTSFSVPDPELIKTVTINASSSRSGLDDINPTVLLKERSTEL
The experiment in a line: Human whole blood in vitro activity assay, COX-2 (LPS-induced PGE2 by EIA). Conditions: for IC50: LPS, PGE2, read-out: IC50 (μg/mL) COX-2 (converted). It is filed as cell-based. The method, then: as §1

The target in a further series is T4, COX-2 (Canis lupus familiaris, UniProt Q8SPQ9).
T4 construct: in vitro activity study using beagle dog whole blood was conducted; from tissue; host or cells: beagle dog whole blood, stimulated with LPS (by the same method as for human blood)
T4 sequence (Q8SPQ9 18-604): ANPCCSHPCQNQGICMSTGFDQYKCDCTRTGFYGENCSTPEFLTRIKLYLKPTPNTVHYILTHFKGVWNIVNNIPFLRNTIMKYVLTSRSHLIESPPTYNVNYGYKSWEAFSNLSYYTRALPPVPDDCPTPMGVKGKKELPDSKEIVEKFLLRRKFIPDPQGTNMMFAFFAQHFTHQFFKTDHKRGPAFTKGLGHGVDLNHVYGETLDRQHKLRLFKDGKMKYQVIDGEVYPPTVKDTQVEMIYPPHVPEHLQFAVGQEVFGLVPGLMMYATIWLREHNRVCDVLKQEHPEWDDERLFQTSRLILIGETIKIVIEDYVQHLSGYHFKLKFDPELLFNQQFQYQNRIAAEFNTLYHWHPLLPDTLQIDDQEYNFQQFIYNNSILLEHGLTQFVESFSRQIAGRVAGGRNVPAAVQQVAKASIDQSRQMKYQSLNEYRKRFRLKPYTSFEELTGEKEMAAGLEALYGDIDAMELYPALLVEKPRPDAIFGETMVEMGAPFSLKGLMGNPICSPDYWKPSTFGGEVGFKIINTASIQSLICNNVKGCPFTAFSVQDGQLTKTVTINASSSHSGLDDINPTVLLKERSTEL
The experiment in a line: Dog whole blood in vitro activity assay, COX-2. It is filed as cell-based, beagle dog. Conditions: for IC50: read-out: IC50 (μg/mL) COX-2 (converted).

The term AUC(0-t) denotes exposure summed from dosing to a finite time, without extrapolation to infinity. Read a high AUC(0-t) as high exposure. The term clearance denotes the rate of elimination divided by the concentration. Higher therefore signals efficient removal. One may read the half-life as the time needed for the level to fall by half in the phase considered. A lower half-life goes with rapid decline.

Structures are written as SMILES.

T1 sequence (P23219 24-599): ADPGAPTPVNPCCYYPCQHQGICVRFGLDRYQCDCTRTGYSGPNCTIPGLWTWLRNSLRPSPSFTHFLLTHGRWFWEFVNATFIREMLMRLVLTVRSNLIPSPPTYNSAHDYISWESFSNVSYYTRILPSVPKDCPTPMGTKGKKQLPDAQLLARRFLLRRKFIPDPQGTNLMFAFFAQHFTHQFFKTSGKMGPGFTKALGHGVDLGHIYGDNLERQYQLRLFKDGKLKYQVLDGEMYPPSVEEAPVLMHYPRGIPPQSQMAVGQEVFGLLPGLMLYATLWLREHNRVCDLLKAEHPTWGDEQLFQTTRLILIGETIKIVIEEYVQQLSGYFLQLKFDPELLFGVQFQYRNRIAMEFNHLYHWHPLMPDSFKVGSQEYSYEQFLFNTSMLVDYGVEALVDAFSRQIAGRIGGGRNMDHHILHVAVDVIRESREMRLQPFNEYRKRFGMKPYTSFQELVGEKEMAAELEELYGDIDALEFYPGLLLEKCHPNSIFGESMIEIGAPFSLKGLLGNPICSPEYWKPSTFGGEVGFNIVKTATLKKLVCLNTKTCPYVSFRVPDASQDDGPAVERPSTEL

With `COc1ccc(-c2c(Cl)ncn2-c2ccc(S(N)(=O)=O)cc2)cc1F` [Cimicoxib, reference compound], in series [1], the t1/2 worked out at 3.20 ± 0.80 h. In series [1] (rat, in vivo), this molecule registered an AUC(0-t) of 12000 ± 4400 ng·h/mL, a C0 of 1980 ± 140 ng/mL and a clearance of 2.99 ± 0.92 mL/min/kg. The same molecule gave a half-life in series [1] (rat, in vivo, 2 mg/ml, DMSO/PEG 400/30% HP-b-CD) of 192 min. Further, the Vd in series [1] (rat, in vivo, read-out: Vss) was 0.773 ± 0.145 L/kg. Moreover, the IC50 in series [2] is 4.16 µM. Also, the IC50 at COX-1 was 15.6 µM. In series [3], the IC50COX-1/IC50COX-2 was 8.8 and the IC50 was 0.471 µM. At COX-2, the IC50COX-1/IC50COX-2 was found to be 9.5 and the IC50 is 1650 nM.
Take `CS(=O)(=O)c1ccc(-n2cnc(Cl)c2-c2ccc(F)cc2)nc1` [Compound 2, 2-(4-chloro-5-(4-fluorophenyl)-1H-imidazol-1-yl)-5-(methylsulfonyl)pyridine]: the IC50 in series [2] is 11.2 µM; at COX-1, 55.9 µM; in series [3] it was 0.512 µM; on COX-2, 2620 nM. In addition, the values for the IC50COX-1/IC50COX-2 (in series [3]; against COX-2) were 21.8 and 21.4, respectively.
In the case of `Cc1ccc(-c2c(Cl)ncn2-c2ccc(S(C)(=O)=O)cn2)cc1` [Compound 3, 2-(4-chloro-5-p-tolyl-1H-imidazol-1-yl)-5-(methylsulfonyl)pyridine], the IC50 in series [2] is 19.7 µM; on COX-1 it was 30.2 µM; in series [3], 0.259 µM; on COX-2, 1610 nM. The IC50COX-1/IC50COX-2 amounted to 76.2 in series [3] and 18.8 against COX-2.
On to `CS(=O)(=O)c1ccc(-n2cnc(Cl)c2-c2cccnc2)nc1` [Compound 7, 2-(4-chloro-5-(pyridin-3-yl)-1H-imidazol-1-yl)-5-(methylsulfonyl)pyridine], for which the IC50 in series [2] was 54 µM. In series [3], the IC50COX-1/IC50COX-2 is 19.0 and the IC50 is 2.84 µM.
In the same order, the values of `CS(=O)(=O)c1ccc(-n2cnc(Cl)c2-c2ccccc2)cn1` [Compound 8, 5-(4-chloro-5-phenyl-1H-imidazol-1-yl)-2-(methylsulfonyl)pyridine] are over 1500 µM, over 416 and 3.59 µM.
On to `CS(=O)(=O)c1ccc(-n2cncc2-c2ccccc2)cn1` [Compound 8E, 2-(methylsulfonyl)-5-(5-phenyl-1H-imidazol-1-yl)pyridine], for which the IC50 was 187 µM in series [2] and over 1670 µM in series [3].
As to `COc1ccc(-c2c(Cl)ncn2-c2ccc(S(C)(=O)=O)nc2)cc1` [Compound 9, 5-(4-chloro-5-(4-methoxyphenyl)-1H-imidazol-1-yl)-2-(methylsulfonyl)pyridine], the IC50 in series [2] is 62.5 µM; at COX-1 it was 553 µM; in series [3], 0.253 µM; on COX-2, 2310 nM. Besides, the IC50COX-1/IC50COX-2 came out at 247.2 in series [3] and 239.6 against COX-2.
For the molecule `COc1ccc(-c2c(Cl)ncn2-c2ccc(S(C)(=O)=O)nc2)cc1F` [Compound 10, 5-(4-chloro-5-(3-fluoro-4-methoxyphenyl)-1H-imidazol-1-yl)-2-(methylsulfonyl)pyridine], the IC50 is 185 µM in series [2] and 3.14 µM in series [3]. In series [3], the IC50COX-1/IC50COX-2 stood at 58.8.
As for `CS(=O)(=O)c1ccc(-n2cnc(Cl)c2-c2cccnc2)cn1` [Compound 11, 5-(4-chloro-5-(pyridin-3-yl)-1H-imidazol-1-yl)-2-(methylsulfonyl)pyridine], in series [2], the IC50 was over 1490 µM. In series [3], the IC50COX-1/IC50COX-2 was over 12.6 and the IC50 was 118 µM.
As for `CS(=O)(=O)c1ccc(-n2cnc(Cl)c2-c2ccc(F)cc2)cn1` [Compound 12, 5-(4-chloro-5-(4-fluorophenyl)-1H-imidazol-1-yl)-2-(methylsulfonyl)pyridine], the IC50 in series [2] was 209 µM. In series [3], the IC50COX-1/IC50COX-2 is 135.9 and the IC50 was 1.54 µM.

Source of the values: patent US9079876B2, “Imidazole derivatives and preparation method and use thereof” (Beijing Orbiepharm Co., Ltd., priority 2010, dated 2015).
